The values that follow come from PMC7614683, “A small molecule PI3Kα activator for cardioprotection and neuroregeneration” (Nature, 2023).

Common to all, as to assay: SelectScreen Z-LYTE kinase activity assay (SI Table 6)
Common to all, as to type: biochemical

Assay [1] concerns the target protein kinases of the Z-LYTE panel (Homo sapiens, UniProt P78527). As for the experimental part: (§1) 133 protein kinases and 7 lipid kinases were counterscreened, with 1938 used at 1 μM, using the Adapta, Lantha and Z-LYTE assays (SelectScreen Kinase Profiling Service; Thermofisher – experimental details of these assays can be found here: https://www.thermofisher.com/uk/en/home/industrial/pharma-biopharma/drug-discovery-development/target-and-lead-identification-and-validation/kinasebiology/kinase-activity-assays.html. The tree represention in KinMap[59] generated courtesy of Cell Signaling Technology, Inc. (www.cellsignal.com). mTORC1 (mTOR/RAPTOR/LST8) protein complex and ATM kinase and substrates were produced as previously described[57],[60]. Screening of 1938 was conducted using SuperSep Phos-Tag 50 μmol/l 100 x 100 x 6.6 mm 17-well (192-18001/199-18011) gels. For ATM assays, 100 nM ATM was incubated for 30 min at 30°C with 5 μM GST-p53 and 1 mM ATP, in the absence or presence of 200 μM 1938 in ATM Kinase Buffer (50 mM HEPES pH 7.5, 100 mM NaCl, 10% glycerol, 2 mM […], 5 mM MgCl2). As a positive control for ATM activation, the same reaction was carried out with 100 nM ATM/5 μM GST-p53/1 mM ATP in the presence of 100 nM Mre11-Rad50-Nbs1 (MRN) complex, a known activator of ATM[61]. For mTORC1 assays, 50 nM mTORC1 complex (mTOR/LST8/RAPTOR) was incubated for 3 h at 30°C with 15 μM 4E-BP1, 10 mM MgCl2 and 250 μM ATP, in the absence or presence of 200 μM 1938. As a ‘positive’ control, a higher concentration (150 nM) of mTORC1 complex (mTOR/LST8/RAPTOR) was incubated for 3 h at 30°C with 15 μM 4E-BP1, 10 mM MgCl2 and 250 μM ATP. Kinase reactions were quenched by addition of SDS-PAGE Loading Buffer (as per manufacturer’s instructions) and freezing at -20°C before being run on the Phos-tag gels at 150 V for 90 min. Gels were then stained using InstantBlue™ Coomassie, and quantified using BioRad Image Lab Software. Kinase assays were carried out in triplicate.

In assay [2] the target is protein kinases of the Z-LYTE panel (Homo sapiens, UniProt Q96GD4). How it is done: as §1
Chain of protein kinases of the Z-LYTE panel (Homo sapiens, UniProt Q96GD4) (Q96GD4 whole entry): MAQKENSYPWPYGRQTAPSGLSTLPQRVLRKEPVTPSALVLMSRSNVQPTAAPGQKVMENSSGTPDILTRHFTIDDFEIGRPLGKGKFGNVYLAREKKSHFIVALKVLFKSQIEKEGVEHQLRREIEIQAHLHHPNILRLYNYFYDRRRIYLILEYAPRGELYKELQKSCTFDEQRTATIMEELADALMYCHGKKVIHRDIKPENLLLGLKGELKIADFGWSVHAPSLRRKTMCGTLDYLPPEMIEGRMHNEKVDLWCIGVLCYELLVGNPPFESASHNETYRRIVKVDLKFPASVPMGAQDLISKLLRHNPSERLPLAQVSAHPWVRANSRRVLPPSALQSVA
Assay [3] concerns the target T1, protein kinases of the Z-LYTE panel (Homo sapiens, UniProt P54762).
T1 sequence (P54762 18-984): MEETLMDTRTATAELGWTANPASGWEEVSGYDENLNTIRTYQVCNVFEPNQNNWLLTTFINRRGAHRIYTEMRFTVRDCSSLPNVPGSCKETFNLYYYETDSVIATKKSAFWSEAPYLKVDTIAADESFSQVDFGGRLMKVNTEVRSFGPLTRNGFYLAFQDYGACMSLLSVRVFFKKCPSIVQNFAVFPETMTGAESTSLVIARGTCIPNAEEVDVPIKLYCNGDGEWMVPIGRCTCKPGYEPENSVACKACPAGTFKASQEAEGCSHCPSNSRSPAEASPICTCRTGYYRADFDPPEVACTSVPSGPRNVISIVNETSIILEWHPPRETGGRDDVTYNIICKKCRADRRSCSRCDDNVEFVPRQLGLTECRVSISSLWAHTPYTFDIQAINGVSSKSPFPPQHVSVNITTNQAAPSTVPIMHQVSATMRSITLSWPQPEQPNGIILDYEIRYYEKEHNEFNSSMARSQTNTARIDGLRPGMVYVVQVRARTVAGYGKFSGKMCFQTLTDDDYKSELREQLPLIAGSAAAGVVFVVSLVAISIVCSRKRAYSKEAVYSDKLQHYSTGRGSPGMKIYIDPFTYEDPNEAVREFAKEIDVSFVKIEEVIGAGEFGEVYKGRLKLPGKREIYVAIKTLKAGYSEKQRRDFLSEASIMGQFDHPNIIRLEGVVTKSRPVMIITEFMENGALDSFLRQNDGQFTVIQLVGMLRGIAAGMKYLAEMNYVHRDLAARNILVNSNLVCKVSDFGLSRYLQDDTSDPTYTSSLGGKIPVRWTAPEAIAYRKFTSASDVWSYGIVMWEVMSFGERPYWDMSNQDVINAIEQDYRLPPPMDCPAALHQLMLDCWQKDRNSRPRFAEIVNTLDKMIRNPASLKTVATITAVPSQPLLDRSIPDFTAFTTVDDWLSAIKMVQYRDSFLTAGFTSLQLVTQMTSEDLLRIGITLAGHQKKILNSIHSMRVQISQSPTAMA
As for the experimental part:
as §1

Where two headings read alike, the source gives them in different places.

Usually inhibition stands for the percentage by which the read-out fell short of the control.

Chain of protein kinases of the Z-LYTE panel (Homo sapiens, UniProt P78527) (P78527 whole entry): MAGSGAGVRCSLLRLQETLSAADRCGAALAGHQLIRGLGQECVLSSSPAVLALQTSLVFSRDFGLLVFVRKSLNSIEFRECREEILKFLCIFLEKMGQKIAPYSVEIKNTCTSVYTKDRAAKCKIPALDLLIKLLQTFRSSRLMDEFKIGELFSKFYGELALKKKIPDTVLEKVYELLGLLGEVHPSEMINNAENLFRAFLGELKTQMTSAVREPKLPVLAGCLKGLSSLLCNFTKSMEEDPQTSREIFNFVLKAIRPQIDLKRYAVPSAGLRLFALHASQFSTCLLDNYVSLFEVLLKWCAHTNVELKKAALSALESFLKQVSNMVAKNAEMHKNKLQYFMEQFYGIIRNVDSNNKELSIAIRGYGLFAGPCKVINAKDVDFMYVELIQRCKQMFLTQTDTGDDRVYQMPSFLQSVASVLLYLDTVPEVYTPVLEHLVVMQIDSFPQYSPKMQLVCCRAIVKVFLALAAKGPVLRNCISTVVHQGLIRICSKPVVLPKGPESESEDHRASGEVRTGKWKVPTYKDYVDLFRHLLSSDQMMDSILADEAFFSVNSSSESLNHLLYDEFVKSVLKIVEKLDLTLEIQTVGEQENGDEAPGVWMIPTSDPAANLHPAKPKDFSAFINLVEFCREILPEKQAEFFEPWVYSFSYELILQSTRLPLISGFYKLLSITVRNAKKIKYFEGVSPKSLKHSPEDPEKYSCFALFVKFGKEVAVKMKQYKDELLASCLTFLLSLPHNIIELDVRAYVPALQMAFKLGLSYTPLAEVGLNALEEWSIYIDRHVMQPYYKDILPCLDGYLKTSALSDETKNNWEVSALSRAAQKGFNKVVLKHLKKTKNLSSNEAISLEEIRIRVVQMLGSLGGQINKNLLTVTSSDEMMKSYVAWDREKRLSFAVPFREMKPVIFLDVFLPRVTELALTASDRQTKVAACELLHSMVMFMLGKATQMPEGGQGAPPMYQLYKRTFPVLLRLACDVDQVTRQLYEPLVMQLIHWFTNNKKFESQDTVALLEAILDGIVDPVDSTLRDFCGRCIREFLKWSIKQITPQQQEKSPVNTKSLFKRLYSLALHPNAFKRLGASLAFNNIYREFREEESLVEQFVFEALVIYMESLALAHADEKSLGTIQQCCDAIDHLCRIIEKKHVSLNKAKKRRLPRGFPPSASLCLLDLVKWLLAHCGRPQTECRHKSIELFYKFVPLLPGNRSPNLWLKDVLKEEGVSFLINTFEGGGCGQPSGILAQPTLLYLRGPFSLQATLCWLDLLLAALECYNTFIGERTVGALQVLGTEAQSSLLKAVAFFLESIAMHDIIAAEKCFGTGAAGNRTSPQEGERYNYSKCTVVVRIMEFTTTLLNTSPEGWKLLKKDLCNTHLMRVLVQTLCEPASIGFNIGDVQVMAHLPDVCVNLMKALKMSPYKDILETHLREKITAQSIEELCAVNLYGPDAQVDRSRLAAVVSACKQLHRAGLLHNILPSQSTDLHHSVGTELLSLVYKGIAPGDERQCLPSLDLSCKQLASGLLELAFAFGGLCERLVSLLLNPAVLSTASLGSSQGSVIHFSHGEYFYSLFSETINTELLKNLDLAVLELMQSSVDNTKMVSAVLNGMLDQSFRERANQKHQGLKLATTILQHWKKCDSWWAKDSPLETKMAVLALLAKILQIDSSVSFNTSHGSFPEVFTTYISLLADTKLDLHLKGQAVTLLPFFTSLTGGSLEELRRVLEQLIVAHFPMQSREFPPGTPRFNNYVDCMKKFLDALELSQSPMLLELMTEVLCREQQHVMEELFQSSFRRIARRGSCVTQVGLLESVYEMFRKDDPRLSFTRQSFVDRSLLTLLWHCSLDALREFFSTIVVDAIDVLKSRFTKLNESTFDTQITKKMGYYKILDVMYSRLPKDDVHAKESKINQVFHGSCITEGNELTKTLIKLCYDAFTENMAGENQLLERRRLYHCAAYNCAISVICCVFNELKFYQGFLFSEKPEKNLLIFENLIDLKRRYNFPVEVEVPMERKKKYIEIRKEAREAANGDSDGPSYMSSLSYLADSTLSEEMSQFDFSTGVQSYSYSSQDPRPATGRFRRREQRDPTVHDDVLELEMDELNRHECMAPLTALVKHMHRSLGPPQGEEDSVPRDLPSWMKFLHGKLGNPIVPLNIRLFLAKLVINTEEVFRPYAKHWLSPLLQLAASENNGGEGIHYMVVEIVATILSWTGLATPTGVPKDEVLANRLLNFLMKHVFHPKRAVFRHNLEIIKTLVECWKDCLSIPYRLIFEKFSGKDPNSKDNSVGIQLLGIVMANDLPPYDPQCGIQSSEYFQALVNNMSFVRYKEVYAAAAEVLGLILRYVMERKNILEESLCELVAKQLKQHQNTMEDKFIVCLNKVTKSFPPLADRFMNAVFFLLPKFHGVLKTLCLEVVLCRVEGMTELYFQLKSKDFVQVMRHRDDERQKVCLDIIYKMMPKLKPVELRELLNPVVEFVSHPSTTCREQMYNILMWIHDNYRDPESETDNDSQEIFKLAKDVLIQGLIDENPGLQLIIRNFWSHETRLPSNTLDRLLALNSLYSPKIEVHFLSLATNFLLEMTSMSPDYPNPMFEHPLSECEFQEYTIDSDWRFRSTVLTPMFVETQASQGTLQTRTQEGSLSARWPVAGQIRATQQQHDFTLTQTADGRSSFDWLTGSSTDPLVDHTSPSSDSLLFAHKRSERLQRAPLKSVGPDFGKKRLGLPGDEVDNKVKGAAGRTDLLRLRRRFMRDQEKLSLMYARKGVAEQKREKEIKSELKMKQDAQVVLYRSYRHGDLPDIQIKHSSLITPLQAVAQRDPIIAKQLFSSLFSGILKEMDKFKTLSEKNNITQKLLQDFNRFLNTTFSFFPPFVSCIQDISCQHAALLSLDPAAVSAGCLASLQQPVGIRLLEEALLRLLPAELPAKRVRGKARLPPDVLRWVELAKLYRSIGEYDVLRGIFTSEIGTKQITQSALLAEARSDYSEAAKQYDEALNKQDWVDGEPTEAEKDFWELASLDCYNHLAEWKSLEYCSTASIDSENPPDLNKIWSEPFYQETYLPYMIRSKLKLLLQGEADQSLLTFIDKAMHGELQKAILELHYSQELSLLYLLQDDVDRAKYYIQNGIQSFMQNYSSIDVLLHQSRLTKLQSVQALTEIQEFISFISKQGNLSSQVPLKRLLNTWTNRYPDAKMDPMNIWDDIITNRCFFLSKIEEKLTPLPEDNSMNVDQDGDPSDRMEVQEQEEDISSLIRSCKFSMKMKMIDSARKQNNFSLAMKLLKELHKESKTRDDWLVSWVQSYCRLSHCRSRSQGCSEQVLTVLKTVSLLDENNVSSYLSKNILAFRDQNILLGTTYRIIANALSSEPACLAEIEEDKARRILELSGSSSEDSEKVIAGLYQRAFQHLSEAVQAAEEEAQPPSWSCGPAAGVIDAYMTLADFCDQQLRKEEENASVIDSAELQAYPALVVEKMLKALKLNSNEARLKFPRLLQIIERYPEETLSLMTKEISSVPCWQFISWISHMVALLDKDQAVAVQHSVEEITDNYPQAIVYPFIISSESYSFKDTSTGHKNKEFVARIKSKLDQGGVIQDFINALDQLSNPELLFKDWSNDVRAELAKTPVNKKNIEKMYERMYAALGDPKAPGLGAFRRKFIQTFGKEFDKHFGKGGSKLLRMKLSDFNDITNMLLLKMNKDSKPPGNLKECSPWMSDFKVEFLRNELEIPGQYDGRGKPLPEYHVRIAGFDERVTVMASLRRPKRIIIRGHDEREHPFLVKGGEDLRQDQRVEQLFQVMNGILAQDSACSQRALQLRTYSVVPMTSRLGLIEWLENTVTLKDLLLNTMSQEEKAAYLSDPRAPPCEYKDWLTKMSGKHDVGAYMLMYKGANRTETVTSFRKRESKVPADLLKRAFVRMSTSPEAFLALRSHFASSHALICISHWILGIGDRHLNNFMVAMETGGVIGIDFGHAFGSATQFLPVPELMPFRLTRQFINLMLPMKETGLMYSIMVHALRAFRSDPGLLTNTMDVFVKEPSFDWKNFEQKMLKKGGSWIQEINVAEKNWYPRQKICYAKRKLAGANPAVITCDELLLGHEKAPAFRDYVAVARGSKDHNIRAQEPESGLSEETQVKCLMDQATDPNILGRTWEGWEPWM

With `CCN1CCN(c2ccc(Nc3cc(Nc4cccc5c4N(C(C)=O)CC5)ccn3)cc2)CC1` [Compound 1938], the inhibition at 1 µM in assay [1] (read-out: % Inhibition Point 1) worked out at 9.47%; in assay [1] (read-out: % Inhibition Point 2), 10%; in assay [1] (read-out: % Inhibition mean) it was 10%; in assay [2] (read-out: % Inhibition Point 1), 30%; in assay [2] (read-out: % Inhibition Point 2), 29%; in assay [2] (read-out: % Inhibition mean), 30%. In addition, the inhibition at 1 µM in assay [3] (read-out: % Inhibition Point 1), in assay [3] (read-out: % Inhibition Point 2) and in assay [3] (read-out: % Inhibition mean) was 11% throughout.
